Results taken from ChEMBL document CHEMBL6109103, “Dodecapeptides derived from human cathelicidin with potent activity against carbapenem-resistant Acinetobacter baumannii” (Eur J Med Chem, 2025).
Converted amounts (≈) assume the structure as drawn. The source made the active and inactive calls. The rule behind the calls is not given here. Positions of bridges follow the written chain, without caps; N, C: chain ends. Non-standard residues stand in square brackets, D forms with d. Residues, ends and D or L forms follow the SMILES beside them. S5 = C=CCCC[C@](C)(N)C(=O)O

How the values were obtained:
proteinase K = test: Proteolytic stability assessed as proteinase K (unknown origin)-mediated drug degradation at 500 microg/ml measured for 20 mins by LC-MS analysis; assay type: ADME, Homo sapiens; details: at 500 µg/mL, read-out: Drug degradation
Lipoteichoic acid = test: Binding affinity to […] bacterial Lipoteichoic acid assessed as dissociation constant by BLI analysis; set-up: species or system Bacteria
[1] = Toxicity in BALB/c mouse assessed as kidney damage at 64 mg/kg, ip measured for 3 days by H and E staining based analysis; assay type: organism-based; details: in vivo, 72 h, time 3 day
Escherichia coli = test: Antibacterial activity against human Escherichia coli assessed as inhibition of bacterial growth; assay type: functional, organism-based
Staphylococcus aureus [2] = test: Antibacterial activity against Staphylococcus aureus […] assessed as inhibition of bacterial growth incubated for 24 hrs by broth dilution assay; assay type: functional
Acinetobacter baumannii [3] = test: Induction of morphological changes in carbapenem-resistant Acinetobacter baumannii at 6.25 microg/ml measured for 24 hrs by SEM analysis; assay type: functional, organism-based; details: dose 6.25 µg/ml
[4] = Toxicity in BALB/c mouse assessed as animal survival at 4 to 64 mg/kg, ip measured for 5 days; assay type: organism-based; details: in vivo, 120 h, dose 4-64 mg/kg, time 5 day
Acinetobacter baumannii [5] = test: Synergistic antibacterial activity against carbapenem-resistant Acinetobacter baumannii clinical isolate 6 in presence of tetracycline by microdilution checkerboard assay; assay type: functional, organism-based
Acinetobacter baumannii [6] = test: Antibacterial activity against carbapenem-resistant Acinetobacter baumannii clinical isolate 5 assessed as inhibition of bacterial growth incubated for 24 hrs by broth dilution assay; assay type: functional
[7] = Toxicity in BALB/c mouse assessed as spleen damage at 64 mg/kg, ip measured for 3 days by H and E staining based analysis; assay type: organism-based; details: in vivo, 72 h, time 3 day
[8] = Toxicity in BALB/c mouse assessed as liver damage at 64 mg/kg, ip measured for 3 days by H and E staining based analysis; assay type: organism-based; details: in vivo, 72 h, time 3 day
Acinetobacter baumannii [9] = test: Antibacterial activity against carbapenem-resistant Acinetobacter baumannii clinical isolate 7 assessed as inhibition of bacterial growth incubated for 24 hrs by broth dilution assay; assay type: functional
Staphylococcus aureus [10] = test: Antibacterial activity against Methicillin-resistant Staphylococcus aureus ATCC 43300 assessed as inhibition of bacterial growth incubated for 24 hrs by broth dilution assay; assay type: functional
Acinetobacter baumannii [11] = test: Synergistic antibacterial activity against carbapenem-resistant Acinetobacter baumannii clinical isolate 6 in presence of CTX by microdilution checkerboard assay; assay type: functional, organism-based
[12] = Hemolytic activity at mouse RBC assessed as hemolysis; assay type: toxicity, cell-based, Erythrocyte; details: mouse red blood cells, read-out: Activity
Acinetobacter baumannii [13] = test: Antibacterial activity against carbapenem-resistant Acinetobacter baumannii clinical isolate 2 assessed as inhibition of bacterial growth incubated for 24 hrs by broth dilution assay; assay type: functional
[14] = Toxicity in BALB/c mouse assessed as heart damage at 64 mg/kg, ip measured for 3 days by H and E staining based analysis; assay type: organism-based; details: in vivo, 72 h, time 3 day
Acinetobacter baumannii [15] = test: Antibacterial activity against carbapenem-resistant Acinetobacter baumannii clinical isolate 6 assessed as inhibition of bacterial growth incubated for 24 hrs by broth dilution assay; assay type: functional
Acinetobacter baumannii [16] = test: Antibacterial activity against carbapenem-resistant Acinetobacter baumannii clinical isolate 8 assessed as inhibition of bacterial growth incubated for 24 hrs by broth dilution assay; assay type: functional
Acinetobacter baumannii [17] = test: Antibacterial activity against carbapenem-resistant Acinetobacter baumannii clinical isolate 6 infected in BALB/c mouse assessed as survival rate at 1.25 mg/kg, NAS administered once a day for 3 days; assay type: functional; details: 72 h, time 3 day
Acinetobacter baumannii [18] = test: Antibacterial activity against Acinetobacter baumannii ATCC 19606 assessed as inhibition of bacterial growth incubated for 24 hrs by broth dilution assay; assay type: functional
Acinetobacter baumannii [19] = test: Antibacterial activity against multidrug-resistant Acinetobacter baumannii assessed as inhibition of bacterial growth incubated for 24 hrs by broth dilution assay; assay type: functional
Acinetobacter baumannii [20] = test: Antibacterial activity against carbapenem-resistant Acinetobacter baumannii clinical isolate 3 assessed as inhibition of bacterial growth incubated for 24 hrs by broth dilution assay; assay type: functional
HaCaT = test: Cytotoxicity against human HaCaT cells assessed as cell death up to 100 microg/ml measured upto 24 hrs; assay type: toxicity, cell-based; details: dose < 100 µg/ml
Acinetobacter baumannii [21] = test: Antibacterial activity against carbapenem-resistant Acinetobacter baumannii clinical isolate 1 assessed as inhibition of bacterial growth incubated for 24 hrs by broth dilution assay; assay type: functional
Acinetobacter baumannii [22] = test: Antibacterial activity against carbapenem-resistant Acinetobacter baumannii clinical isolate 4 assessed as inhibition of bacterial growth incubated for 24 hrs by broth dilution assay; assay type: functional
[23] = Toxicity in BALB/c mouse assessed as lung damage at 64 mg/kg, ip measured for 3 days by H and E staining based analysis; assay type: organism-based; details: in vivo, 72 h, time 3 day
Pseudomonas aeruginosa = test: Antibacterial activity against human Pseudomonas aeruginosa assessed as inhibition of bacterial growth; assay type: functional, organism-based
[24] = Binding affinity to gram negative bacterial lipid II assessed as dissociation constant by BLI analysis; set-up: species or system Bacteria
[25] = Toxicity in BALB/c mouse assessed as animal survival at 1.25 mg/kg, NAS measured for 5 days; assay type: organism-based; details: in vivo, inhaled or intranasal, time 5 day
[26] = Toxicity in BALB/c mouse assessed as spleen damage at 16 mg/kg, ip measured for 3 days by H and E staining based analysis; assay type: organism-based; details: in vivo, 72 h, time 3 day
[27] = Toxicity in BALB/c mouse assessed as liver damage at 16 mg/kg, ip measured for 3 days by H and E staining based analysis; assay type: organism-based; details: in vivo, 72 h, time 3 day
[28] = Toxicity in BALB/c mouse assessed as heart damage at 16 mg/kg, ip measured for 3 days by H and E staining based analysis; assay type: organism-based; details: in vivo, 72 h, time 3 day
[29] = Toxicity in BALB/c mouse assessed as lung damage at 16 mg/kg, ip measured for 3 days by H and E staining based analysis; assay type: organism-based; details: in vivo, 72 h, time 3 day

For `CC[C@H](C)[C@H](NC(=O)[C@H](CCCNC(=N)N)NC(=O)[C@@H](N)CCCCN)C(=O)N[C@@]1(C)CCC/C=C\CCC[C@@](C)(C(=O)N[C@H](C(=O)N[C@@H](Cc2ccccc2)C(=O)N[C@@H](CC(C)C)C(=O)N[C@@H](CCCNC(=N)N)C(=O)O)[C@@H](C)CC)NC(=O)[C@H]([C@@H](C)CC)NC(=O)[C@H](CCCNC(=N)N)NC(=O)[C@H](CCCNC(=N)N)NC1=O` (H-KRI[S5]RRI[S5]IFLR-OH; staple (Z) 4-8), the metabolised at 20 min, 500 microg/ml (proteinase K) was 17.8%, the Kd (Lipoteichoic acid) was 48.9 nM and the Activity [1] was “Non-toxic”. The Activity (Escherichia coli) was “Active”, the MIC (Staphylococcus aureus [2]) was 80 µg/mL (≈ 49.3 µM) and the Activity (Acinetobacter baumannii [3]) was “Active”. For the same molecule, the Activity [4] was “Non-toxic”, the Activity (Acinetobacter baumannii [5]) was “Active” and the MIC (Acinetobacter baumannii [6]) was 5 µg/mL (≈ 3.08 µM). For the same molecule, the Activity [7] was “Non-toxic”, the Activity [8] was “Non-toxic” and the MIC (Acinetobacter baumannii [9]) was 20 µg/mL (≈ 12.3 µM). The MIC (Staphylococcus aureus [10]) was 80 µg/mL (≈ 49.3 µM), the Activity (Acinetobacter baumannii [11]) was “Active” and the hemolysis [12] was under 1%. For the same molecule, the MIC (Acinetobacter baumannii [13]) was 10 µg/mL (≈ 6.17 µM), the Activity [14] was “Non-toxic” and the MIC (Acinetobacter baumannii [15]) was 2.5 µg/mL (≈ 1.54 µM). The MIC (Acinetobacter baumannii [16]) was 5 µg/mL (≈ 3.08 µM), the survival at 1.25 mg/kg (Acinetobacter baumannii [17]) was 50% and the MIC (Acinetobacter baumannii [18]) was 5 µg/mL (≈ 3.08 µM). The MIC (Acinetobacter baumannii [19]) was 5 µg/mL (≈ 3.08 µM), the MIC (Acinetobacter baumannii [20]) was 5 µg/mL (≈ 3.08 µM) and the Activity (HaCaT) was “Non-toxic”. For the same molecule, the MIC (Acinetobacter baumannii [21]) was 5 µg/mL (≈ 3.08 µM), the MIC (Acinetobacter baumannii [22]) was 10 µg/mL (≈ 6.17 µM) and the Activity [23] was “Non-toxic”. For the same molecule, the Activity (Pseudomonas aeruginosa) was “Active”, the Kd [24] was 5.9 nM and the survival at 120 h [25] was 70%.
For `CC(C)CCCCC(=O)N[C@@H](CCN)C(=O)N[C@H](C(=O)N[C@@H](CCN)C(=O)N[C@H]1CCNC(=O)[C@H]([C@@H](C)O)NC(=O)[C@H](CCN)NC(=O)[C@H](CCN)NC(=O)[C@H](CC(C)C)NC(=O)[C@@H](Cc2ccccc2)NC(=O)[C@H](CCN)NC1=O)[C@@H](C)O.CC[C@H](C)CCCCC(=O)N[C@@H](CCN)C(=O)N[C@H](C(=O)N[C@@H](CCN)C(=O)N[C@H]1CCNC(=O)[C@H]([C@@H](C)O)NC(=O)[C@H](CCN)NC(=O)[C@H](CCN)NC(=O)[C@H](CC(C)C)NC(=O)[C@@H](Cc2ccccc2)NC(=O)[C@H](CCN)NC1=O)[C@@H](C)O` (HELM PEPTIDE1{[CC[C@H](C)CCCCC(=O)[*:2]].[Dab].T.[Dab].[Dab].[Dab].[dF].L.[Dab].[Dab].T}$PEPTIDE1,PEPTIDE1,5:R3-11:R2$$$V2.0), the Activity [26] was “Non-toxic”, the Activity [27] was “Non-toxic” and the Activity [28] was “Non-toxic”. The Activity [29] was “Non-toxic”.
